# Measured values as given in patent publication US20040175352A1, “Microbicidal compositions including an ionene polymer and 2,4,4-trichloro-2-hydroxydiphenyl ether, and methods of using the same” (priority 2003, published 2004).
# “And” between values parts separate entries of the source, which are not always exact repeats. Equal entries are not always repeated.
# Legend:
# Type in all cases: cell-based
# Chlorella sp. = assay: Algal evaluation, Chlorella sp. growth prevention (end point, Kull synergism); details: lowest concentration completely preventing growth for three or four weeks, modified Allen's medium pH 7.8, 25° C., 180 ft-candle
# Procedure: The medium used for testing the effectiveness of the invention against algae was modified Allen's medium (see Allen, A. A., Simple conditions for growth of unicellular blue-green algae on plates, JOURNAL OF PHYCOLOGY. 4:1-4 […]). To make modified Allen's medium, the following six individual stock solutions in g/200 ml of deionized water were first prepared: 1.50 g of K2HPO4; 1.50 g of MgSO4.7H20; 0.80 g Na2CO3; 0.5 g CaCl2.2H2O; 1.16 g Na2SiO3.9H2O; 1.20 g citric acid. A micronutrient stock solution was also prepared by adding the following ingredients to 1 liter of deionized water: 0.75 g of Na2EDTA; 0.097 g FeCl3.6H2O; 0.041 g of MnCl2.4H2O; 0.005 g ZnCl2; 0.002 g CoCl2.6H2O; 0.004 g Na2MoO4.2H2O. To make the final modified Allen's medium, the following ingredients and the stock solutions, prepared from above, were combined in a flask and then made up to 1 liter with deionized water: 1.5 g NaNO3; 5 ml K2HPO4; 5 ml MgSO4.7H2O; 5 ml Na2CO3; 10 ml CaCl2.2H2O; 10 ml Na2SiO3.9H2O; 1 ml citric acid; and 1 ml micronutrient stock solution. The pH was adjusted to 7.8. Then the medium was dispensed in 5 ml amounts in test tubes and autoclaved at 121° C. for 20 minutes. After autoclaving, the biocides were added to the medium in the desired concentrations. […]
# Trichoderma viride = assay: Fungal evaluation, Trichoderma viride growth prevention (end point, Kull synergism); details: lowest concentration completely preventing growth for seven days, mineral salts-glucose medium pH 6, 25° C.
# Procedure: Mineral salts-glucose medium was used. To prepare the medium, the following ingredients were added to 1 liter of deionized water: 0.7 g of KH2PO4; 0.7 g of MgSO4.7H2O; 1.0 g of HN4NO3; 0.005 g of NaCl; 0.002 g of FeSO4.7H20; 0.002 g ZnSO4.7H2O; 0.001 g of MnSO4.7H2O; 10 g of Glucose. The pH of the medium was adjusted to 6 with 1N NaOH. The medium was distributed in 5 ml amounts in test tubes and autoclaved at 121° C. for 20 minutes. The fungus, Trichoderma viride or Aspergillus niger, was grown on potato dextrose agar slant for 5 to 10 days and a spore suspension prepared by washing down the spores from the slant into a sterile saline solution. After addition of the biocides in the desired concentrations in the sterile mineral salts-glucose medium, the fungal spore suspension was added. The final spore concentration was approximately 10^6 cfu/ml. The inoculated media was incubated at 25° C. for 7 days.
# (Busan® 77), poly[hydroxyethylene-(dimethyliminio)-2-hydroxypropylene(dimethyliminio)methylene dichloride] […]
# Klebsiella pneumoniae = assay: Bacterial evaluation, Klebsiella pneumoniae growth prevention (end point, Kull synergism); details: lowest concentration completely preventing growth for 24 or 48 hours, nutrient broth, 30° C.
# Procedure: (§1) Nutrient broth (2.5 g/liter of deionized water) was prepared. This was distributed in 5 ml amounts in test tubes and autoclaved at 121° C. for 20 minutes. After addition of the biocides in the desired concentrations to the nutrient broth, 100 microliters of a 24-hour grown suspension of Pseudomonas aeruginosa or Klebsiella pneumoniae cells of approximately 9.3×10^8 cfu/ml were added and incubated at 30° C. for 24 or 48 hours.
# (§2) (Busan® 77), poly[hydroxyethylene-(dimethyliminio)-2-hydroxypropylene(dimethyliminio)methylene dichloride] (Busan® 1055 or APCA), or a cross-linked terpolymer of dimethylamine, epichlorohydrin and ethylenediamine (Busan® 1157), (designated component A), and triclosan (designated component B) in a series of tests in varying ratios and a range of concentrations against the fungi Trichoderma viride, and Aspergillus niger, the bacteria Pseudomonas aeruginosa and Klebsiella pneumoniae, and the alga Chlorella sp. using the methods described above.
# (§3) End points for the various mixtures were then compared with the end points for the pure active ingredients alone in concomitantly prepared flasks or test tubes.
# (§4) Qa=Concentration of compound A in parts per million, acting alone, which produced an end point.
# (§5) Qb=Concentration of compound B in parts per million, acting alone, which produced an end point. […]
# Pseudomonas aeruginosa = assay: Bacterial evaluation, Pseudomonas aeruginosa growth prevention (end point, Kull synergism)
# Procedure: as §1, §2, §3, §4, §5
compound,measurement,setting,value
"Oc1cc(Cl)ccc1Oc1ccc(Cl)cc1Cl [Triclosan, 2,4,4′-tricloro-2′-hydroxydiphenyl ether]","Ob, quantity producing end point: concentration of component B (triclosan) acting alone",Chlorella sp.,0.5 ppm and 0.6 ppm
same,"Ob, quantity producing end point: concentration of component B (triclosan) acting alone",Trichoderma viride,25 ppm
same,"Ob, quantity producing end point: concentration of component B (triclosan) acting alone",Klebsiella pneumoniae,0.5 ppm
same,"Ob, quantity producing end point: concentration of component B (triclosan) acting alone","Pseudomonas aeruginosa; Pseudomonas aeruginosa, lowest concentration completely preventing growth for 24 or 48 hours, nutrient broth, 30° C.",>500 ppm
same,effectiveness against Pseudomonas sp. when used individually,"Pseudomonas aeruginosa; Pseudomonas sp., component used individually",ineffective
